Experimental data: PubChem BioAssay (NCI)
Where “and” joins values, the source holds several entries; their conditions need not be identical. Equal entries are not always repeated.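 Growth conditions: 96-well plates. Treatment: test compound, 48 hours, 5 concentrations. Analysis: linear interpolation between bracketing concentrations; unreached endpoints set to highest concentration. Abbreviation: GI50, concentration required for 50% inhibition of growth. TGI denotes the concentration required for complete inhibition of growth.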

Key:
Assay in all cases: NCI tumour cell line growth inhibition, 48 h
SNB-75 CNS = test system: SNB-75 CNS
IGROV1 ovarian = test system: IGROV1 ovarian
OVCAR-3 ovarian = test system: OVCAR-3 ovarian
HS 578T breast = test system: HS 578T breast
COLO 205 colon = test system: COLO 205 colon
SK-OV-3 ovarian = test system: SK-OV-3 ovarian
HCT-15 colon = test system: HCT-15 colon
M14 melanoma = test system: M14 melanoma
K-562 leukemia = test system: K-562 leukemia
HL-60(TB) leukemia = test system: HL-60(TB) leukemia
LOX IMVI melanoma = test system: LOX IMVI melanoma

Row | Compound | TGI (SNB-75 CNS) | TGI (IGROV1 ovarian) | TGI (OVCAR-3 ovarian) | TGI (HS 578T breast) | TGI (COLO 205 colon) | TGI (SK-OV-3 ovarian) | TGI (HCT-15 colon) | TGI (M14 melanoma) | TGI (K-562 leukemia) | TGI (HL-60(TB) leukemia) | TGI (LOX IMVI melanoma) | GI50 (OVCAR-3 ovarian) | GI50 (COLO 205 colon) | GI50 (SK-OV-3 ovarian) | GI50 (HCT-15 colon) | GI50 (M14 melanoma) | GI50 (K-562 leukemia) | GI50 (HS 578T breast)
1 | Cn1c2ccccc2c2c(-c3ccccc3)cc3c(c21)C(=O)C=CC3=O | > 9.66 µM | 5.5 µM | 4.03 µM | 9.62 µM | 2.05 µM | > 10 µM | 5.41 µM | 3.4 µM | > 3.46 µM | 1.1 µM | > 10 µM |  |  |  |  |  |  | 
2 | CNC1=C(C)C(=O)C(=O)C([C@H](C)CCC=C(C)C)=C1O | > 94.4 µM | > 76.1 µM | > 100 µM | > 91.8 µM | > 73.7 µM | 83.3 µM | > 100 µM | > 100 µM | > 100 µM | 6.88 µM | > 100 µM |  |  |  |  |  |  | 
3 | CCOC(=O)c1cccn1S(=O)(=O)c1cc(Cl)ccc1NC(=O)CC | > 100 µM | > 100 µM | > 100 µM | > 100 µM | 65.4 µM | > 100 µM | > 100 µM |  | > 100 µM | > 100 µM | > 100 µM |  |  |  |  |  |  | 
4 | O=C(CC(=O)N(C(=O)/C=C\c1ccccc1)c1ccc(Cl)cc1)N1N=C(c2ccccc2)C(N=Nc2cccc([N+](=O)[O-])c2)C1=O (stereo not given) | 29.3 µM | 48.6 µM | 6.25 µM | 75.1 µM | 14.7 µM | 40.7 µM | 21.6 µM | > 100 µM | 68.6 µM | 11.1 µM | > 100 µM |  |  |  |  |  |  | 
5 | O=c1oc2ccc3ccccc3c2cc1-c1cn2ccccc2n1 | > 100 µM | > 100 µM | > 100 µM | > 100 µM | > 100 µM | > 100 µM | > 100 µM | > 100 µM | > 100 µM | > 100 µM | > 100 µM |  |  |  |  |  |  | 
6 | COC(=O)C1(C(=O)OC)Cc2ccc(OC)cc2C2=C1C(=O)c1ccccc1C2=O | 35.8 µM | 8.53 µM | 3.69 µM | 50.4 µM | 40.5 µM |  | 25.2 µM | 34.5 µM | 4.37 µM | > 21.1 µM | 5.39 µM |  |  |  |  |  |  | 
7 | CS(=O)(=O)c1nc(-c2cc3c(c(S(C)(=O)=O)n2)CCC3)cc2c1CCCCC2 | 24.7 µM | 63.7 µM | > 100 µM | 40 µM | > 100 µM | 34.9 µM | > 100 µM | > 100 µM | > 100 µM | > 100 µM | > 100 µM |  |  |  |  |  |  | 
8 | C=CCN1C(=O)/C(=C/c2ccc(OC)cc2)N=C1SC/C=C/C | > 100 µM | > 100 µM | > 100 µM | > 100 µM | > 100 µM | > 100 µM | > 100 µM | > 100 µM | > 100 µM | 54.4 µM | > 100 µM |  |  |  |  |  |  | 
9 | O=C(CN1CCCCC1)Nc1ccc2sc3ccccc3c(=O)c2n1 | 32.3 µM | 37.4 µM | > 100 µM | 45.2 µM | 28.3 µM | 48.9 µM | 40.2 µM | 41.4 µM | 52.3 µM | 68.9 µM | 26.4 µM |  |  |  |  |  |  | 
10 | OC1(c2cccs2)c2cccc(Cl)c2C(O)(c2cccs2)c2c(Cl)cccc21 (stereo not given) | > 100 µM | > 100 µM | > 100 µM | 33.4 µM | > 100 µM | > 100 µM | > 100 µM | > 100 µM | > 100 µM | > 100 µM | > 100 µM |  |  |  |  |  |  | 
11 | O=C1/C(=C\c2ccc(O)cc2)CCC/C1=C/c1ccc(Cl)c(Cl)c1 | 11.8 µM | 1.17 µM | 9.73 µM | 21.5 µM | 3.67 µM | 17 µM | 9.75 µM | 5.44 µM | 11.9 µM | 4.94 µM | 3.62 µM |  |  |  |  |  |  | 
12 | O=C1/C(=C/c2cccc(Br)c2)CCc2ccccc21 | 30 µM | 24.7 µM | 28.6 µM | 24.8 µM | 40.8 µM | 47.2 µM | 24.1 µM | 29.4 µM | 29.9 µM | 28.3 µM | 28.5 µM |  |  |  |  |  |  | 
13 | C=CCOc1cccc(C2(O)c3ccccc3C3=NCCCN32)c1 (stereo not given) | 36.8 µM | > 37.4 µM | 10.4 µM | > 78.4 µM | 33.5 µM | > 100 µM | > 50 µM | 26.1 µM | > 35.4 µM | > 35.6 µM | 29.4 µM |  |  |  |  |  |  | 
14 | CCOP(=O)(OCC)/C(C#N)=C/c1ncc[nH]1 | > 100 µM |  | > 100 µM | > 100 µM | > 100 µM | > 100 µM |  | > 100 µM | > 100 µM | > 100 µM | > 100 µM |  |  |  |  |  |  | 
15 | O=C1CCC2C(O)c3cc4c(cc3C(c3ccc5c(c3)OCO5)N12)OCO4 (stereo not given) | 41.5 µM | > 100 µM | > 100 µM | 81.7 µM | > 100 µM | > 100 µM | > 100 µM | > 100 µM | > 100 µM | > 100 µM | > 100 µM |  |  |  |  |  |  | 
16 | CCCCCCCCCCCCCCCCCCNc1ccn(C2OC(COP(=O)(O)OCC3OC(n4cc(F)c(=O)[nH]c4=O)CC3O)C(O)C2O)c(=O)n1 (stereo not given) | > 100 µM | 35.8 µM | > 100 µM | > 100 µM | > 80.4 µM | > 100 µM | > 100 µM | > 78.1 µM | > 100 µM | 22.1 µM | 18.2 µM |  |  |  |  |  |  | 
17 | N#Cc1c(-c2ccccc2)cc(-c2ccccc2)n(C2OC(CO)C(O)C(O)C2O)c1=S (stereo not given) | > 100 µM | > 100 µM | 34.3 µM and > 100 µM | 64.4 µM and > 100 µM | 45.9 µM and > 100 µM | > 100 µM | > 100 µM | 62.6 µM and > 100 µM | 41.4 µM and > 100 µM | > 100 µM | 37.7 µM and 92.3 µM | 18 µM and 73 µM | 17.9 µM and 43 µM | 40.3 µM and 85 µM | 31 µM and 80.8 µM | 25.1 µM and > 100 µM | 13.7 µM and 29.4 µM | 
18 | COc1ccc(-c2c(C#N)c(N)n(C3OCC(OC(C)=O)C(OC(C)=O)C3OC(C)=O)c(=S)c2C#N)cc1 (stereo not given) | > 100 µM | > 100 µM | > 100 µM | > 100 µM | > 100 µM | 85.2 µM and > 100 µM | > 100 µM | > 100 µM |  | 36.5 µM and 35.9 µM | > 100 µM |  |  |  |  |  |  | 33.5 µM and 76.2 µM
